Test results as given in US11939301B2, “5HT1F receptor agonists and mitochondrial biogenesis” (MUSC FOUNDATION FOR RESEARCH DEVELOPMENT, priority 2016, dated 2024).

Legend:
[1] = test system: renal proximal tubule cells; assay: In-vitro mitochondrial biogenesis dose response (FCCP-uncoupled OCR, Seahorse); assay type: cell-based; details: Oryctolagus cuniculus; rabbit renal proximal tubule cells, 24 h incubation, uncoupled OCR normalized to vehicle, Hill fit, N=4-6
Description: OCRs were measured using a Seahorse Bioscience analyzer (North Billerica, Mass.) before (basal) and after addition of […] FCCP, an ionophore that uncouples electron transport from ATP generation. The selective 5-HT1F receptor agonists LY334370 (4-fluoro-N-[3-(1-methyl-4-piperidinyl)-1H-indol-5-yl]benzamide) and LY344864 (N-[(3R)-3-(dimethylamino)-2,3,4,9-tetrahydro-1H-carbazol-6-yl]-4-fluorobenzamide), and the nonselective 5-HT receptor agonist a-methyl 5-HT were purchased from Tocris (Ellisville, Mo.).
In-vitro mitochondrial biogenesis dose responses (reported as EC50 values) were determined from a modification of the assay described in Example 21. […] Compounds were incubated at different doses with renal cells for 24 h after which their basal respiration and elevated FCCP-induced uncoupled oxygen consumption rates (OCRs) were measured using a Seahorse Bioscience analyzer (Beeson et al., 2010). Uncoupled OCRs were normalized to vehicle control OCRs and the rates that decrease at high concentrations of drug were eliminated. The remaining dose-dependent responses were fit to a standard Hill equation using non-linear regression to obtain the EC50 values for replicates of N=4-6 where N is the number of individual rabbit renal cell isolations tested for each compound.

[2] = test system: podocytes (1-1P4G5 podocyte clone); assay: Podocyte mitochondrial biogenesis (FCCP-uncoupled oxygen consumption rate); assay type: cell-based; details: Mus musculus; differentiated podocytes, FCCP 1 μM uncoupled rate normalized to vehicle, Hill fit
Description: Fully differentiated podocytes were assayed using increased mitochondrial reserve capacity (measured as FCCP-uncoupled oxygen consumption rate) as a measure of mitochondrial biogenesis.
For these studies the 1-1P4G5 podocyte clone developed in the Kopp lab at the NIH were used. (25) These cells expressed a SV40-driven temperature sensitive T antigen that enabled the cells to proliferate in an undifferentiated state at the permissive temperature of 33° C. and then after 5 days of culture at 37° C. the cells are fully differentiated as mature podocytes. The differentiated cells were maintained in Advanced RPMI 1640 with 10% fetal calf serum and then plated at 1.5 million cells/96-well Seahorse plate for 48 h prior to treatment with test compound, vehicle control (VC) or validated 5-HT1F agonists. The plates were then transferred to a Seahorse XF96 Instrument during which basal and FCCP-uncoupled rates were measured (the [FCCP]=1 μM). Drugs were treated at a range of 1 nM, 10 nM, 100 nM, 500 nM, and 1 μM and the uncoupled rates were normalized to vehicle control, <0.2% DMSO in media. The doses responses were fit to a Hill function and the EC50 values were calculated from the non-linear regression.

[3] = test system: murine model of glomerular disease; assay: Nephrotoxic serum (NTS) induced chronic kidney disease model, albuminuria; assay type: in vivo, mouse; details: C57/BL mice, 2 mg/kg once per day, FIG. 1
Excerpt: Renal dysfunction was modeled in mice using the nephrotoxic serum (NTS) induced model. The classical Adriamycin model for glomerular studies relies critically on dosing profiles, has resistance in some murine species, off-target effects in others, and required days (10 days) instead of hours for observable albuminuria (marker for renal compromise, determined by urine collection) compared to the NTS counterpart. (Mallipattu, S. K.; He, J. C. Am. J. Physiol. Renal Physiol. 2016, 311, F46-F51; Pippin, J. W.; Brinkkoetter, P. T.; Cormack-Aboud, F. C.; Durvasula, R. V.; Hauser, P. V.; Kowalewska, J.; Krofft, R. D.; Logar, C. M.; Marshall, C. B.; Ohse, T.; Shankland, S. J. Am. J. Physiol. Renal Physiol. 2009, 296, F213-F229). Conversely, the NTS model is quick onset (4 h) and has wide species reproducibility.
In this experiment, induction of the nephrotoxic serum (NTS) model ([…] injection) for glomerular decline was performed using C57/BL mice (15 mice total).
Urine albumin/creatinine ratios were measured in control (NTS+vehicle) and drug treated mice (NTS+drug (example 6) for pre-injection, day 2, day 6, day 12 and day 14. Drug was administered once per day at 2 mg/kg. Thus, it is expected that the compounds of the invention are useful to treat chronic kidney disease.

RPTC = details: cited from earlier work; for maximal mitochondrial respiration / mitochondrial proteins (ATP synthase β, Cox1, NDUFB8): RPTC, 1-100 nM
[4] = test system: ischemia/reperfusion-induced AKI; details: following ischemia/reperfusion-induced AKI; cited from earlier work
[5] = test system: murine renal cortex, heart, and liver; details: cited from earlier work

SMILES	EC50 [1]	EC50 [2]	further results
CN1CCCN(C(=O)c2cccc(NC(=O)c3c(F)cc(F)cc3F)n2)CC1 [Example 7, 2,4,6-trifluoro-N-(6-(4-methyl-1,4-diazepane-1-carbonyl)pyridin-2-yl)benzamide]	0.2 nM		
COCC(=O)N1CCc2ccc(NC(=O)c3cc(F)cc(F)c3)cc21 [Example 17, 3,5-difluoro-N-(1-(2-methoxyacetyl)indolin-6-yl)benzamide]	0.02 nM		
COCCNC(=O)c1cnc(N)n(CCOC)c1=O [Example 3, 2-amino-N,1-bis(2-methoxyethyl)-6-oxo-1,6-dihydropyrimidine-5-carboxamide]	20 nM		
COCCNC(=O)c1cnc2c(OC)cc(OC)cc2c1O [Example 4, 4-hydroxy-6,8-dimethoxy-N-(2-methoxyethyl)quinoline-3-carboxamide]	2 nM	20 nM	
COCCNC(=O)c1cnc2ccc(OC)cn2c1=O [Example 1, 7-methoxy-N-(2-methoxyethyl)-4-oxo-4H-pyrido[1,2-a]pyrimidine-3-carboxamide]	0.02 nM		
COCC(=O)N1CCc2ccc(NC(=O)c3cccc(Br)c3)cc21 [Example 20, 3-bromo-N-(1-(2-methoxyacetyl)indolin-6-yl)benzamide]	0.02 nM		
CN1CCN(C(=O)c2cccc(Nc3nc4ccccc4[nH]3)n2)CC1 [Example 10, (6-((1H-benzo[d]imidazol-2-yl)amino)pyridin-2-yl)(4-methylpiperazin-1-yl)methanone]	0.2 nM		
CN1CCC(C(=O)c2cccc(NC(=O)c3c(F)cc(F)cc3F)n2)CC1 [Example 24, 2,4,6-trifluoro-N-(6-(1-methylpiperidine-4-carbonyl)pyridin-2-yl)benzamide, reference compound]	0.6 nM	20 nM	
COCC(=O)N1CCc2ccc(NC(=O)c3ccc(F)cc3F)cc21 [Example 13, 2,4-difluoro-N-(1-(2-methoxyacetyl)indolin-6-yl)benzamide]	0.02 nM		
O=C(Nc1ccc2c(c1)N(C(=O)CN1CCOCC1)CC2)c1ccccc1 [Example 27, N-(1-(2-morpholinoacetyl)indolin-6-yl)benzamide]		20 nM	
COCC(=O)N1CCc2ccc(N(C)C(=O)c3c(F)cc(F)cc3F)cc21 [Example 16, 2,4,6-trifluoro-N-(1-(2-methoxyacetyl)indolin-6-yl)-N-methylbenzamide]	0.002 nM		
COc1cc(OC)c2ncc(C(=O)N3CCN(C)CC3)c(O)c2c1 [Example 5, (4-hydroxy-6,8-dimethoxyquinolin-3-yl)(4-methylpiperazin-1-yl)methanone]	1 nM	100 nM	
COCC(=O)N1CCc2ccc(Nc3nc4ccccc4[nH]3)cc21 [Example 14, 1-(6-((1H-benzo[d]imidazol-2-yl)amino)indolin-1-yl)-2-methoxyethan-1-one]	0.02 nM		
CN1CCN(C(=O)c2cccc(NC(=O)c3c(F)cc(F)cc3F)n2)CC1 [Example 6, 2,4,6-trifluoro-N-(6-(4-methylpiperazine-1-carbonyl)pyridin-2-yl)benzamide]	2 nM	100 nM	albuminuria (urine albumin/creatinine ratio) [3]: attenuated albuminuria
CN1CCC(c2c[nH]c3ccc(NC(=O)c4ccc(F)cc4)cc23)CC1 [LY334370, 4-fluoro-N-[3-(1-methyl-4-piperidinyl)-1H-indol-5-yl]benzamide]			maximal mitochondrial respiration (RPTC): increased; mitochondrial proteins (ATP synthase β, Cox1, NDUFB8) (RPTC): increased
CN1CCN(C(=O)c2cccc(NC(=O)c3ccccc3)n2)CC1 [Example 11, N-(6-(4-methylpiperazine-1-carbonyl)pyridin-2-yl)benzamide]	2 nM		
CCN(CC)CC(=O)N1CCc2ccc(NC(=O)c3ccccc3)cc21 [Example 26, N-(1-(diethylglycyl)indolin-6-yl)benzamide]		20 nM	
CN(C)CC(=O)N1CCc2ccc(NS(=O)(=O)c3ccccc3)cc21 [Example 25, N-(1-(dimethylglycyl)indolin-6-yl)benzenesulfonamide]		0.2 nM	
COc1cc(CC(C)N)c(OC)cc1I.Cl (stereo not shown) [DOT, 1-(2,5-dimethoxy-4-iodophenyl)-2-aminopropane hydrochloride]			recovery of mitochondrial function (RPTC; renal proximal tubular cells, following oxidant injury): accelerated the recovery of mitochondrial function; induction of MB (RPTC; renal proximal tubular cells): potent inducer of MB
CN(C)[C@@H]1CCc2[nH]c3ccc(NC(=O)c4ccc(F)cc4)cc3c2C1 [LY344864, N-[(3R)-3-(dimethylamino)-2,3,4,9-tetrahydro-1H-carbazol-6-yl]-4-fluorobenzamide]			recovery of renal function (BUN, KIM-1, mtDNA copy number) [4]: accelerated recovery of renal function; maximal mitochondrial respiration (RPTC): increased; mitochondrial proteins (ATP synthase β, Cox1, NDUFB8) (RPTC): increased; PGC-1α, Cox1 and NDUFB8 transcript levels and mtDNA copy number [5]: increased
CN1CCN(C(=O)c2cccc(NC(=O)N(C)C)n2)CC1 [Example 9, 1,1-dimethyl-3-(6-(4-methylpiperazine-1-carbonyl)pyridin-2-yl)urea]	0.2 nM		
COCC(=O)N1CCc2ccc(NC(=O)c3ccc(F)c(F)c3)cc21 [Example 15, 3,4-difluoro-N-(1-(2-methoxyacetyl)indolin-6-yl)benzamide]	0.2 nM		
Cc1ccc(S(=O)(=O)Nc2cccc(C(=O)N3CCN(C)CC3)n2)cc1 [Example 8, 4-methyl-N-(6-(4-methylpiperazine-1-carbonyl)pyridin-2-yl)benzenesulfonamide]	0.2 nM		
COCCNC(=O)c1cnc2ccc(NCCOC)cn2c1=O [Example 2, N-(2-methoxyethyl)-7-((2-methoxyethyl)amino)-4-oxo-4H-pyrido[1,2-a]pyrimidine-3-carboxamide]	0.02 nM		
COCC(=O)N1CCc2ccc(N(S(=O)(=O)c3ccccc3)S(=O)(=O)c3ccccc3)cc21 [Example 19, N-(1-(2-methoxyacetyl)indolin-6-yl)-N-(phenylsulfonyl)benzenesulfonamide]	2 nM	20 nM	
COCC(=O)N1CCc2ccc(Nc3nc4ccccc4o3)cc21 [Example 12, 1-(6-(benzo[d]oxazol-2-ylamino)indolin-1-yl)-2-methoxyethan-1-one]	2 nM		
